The assay addresses FecB E339S (Mycobacterium tuberculosis, UniProt O53291, E339S). It counts as binding.

This passage reports Fold-decrease and Kd results from publication PMC10553834, “Differentiating the roles of Mycobacterium tuberculosis substrate binding proteins, FecB and FecB2, in iron uptake” (PLOS Pathogens, 2023).

As a reminder, the Kd is the concentration at which binding is half-saturated. A low value points to a tighter complex. With carboxymycobactin [apo-cMB], the Fold-decrease was ~1.7 and the Kd stood at 4.8 ± 0.3 µM.
